“Also recorded” adds a separate entry of the source. Like-named read-outs stand apart in the source and are kept apart here.
Assays:
Assay type in all cases: cell-based
human AhR [1] = target: T1, human AhR (Homo sapiens, UniProt P35869); experiment: Yeast AhR screen (strain YCM3), assay in plastic tubes
T1 construct: expressed in transfected cells; host or cells: Saccharomyces cerevisiae strain YCM3 (gift of Charles Miller)
Text: (§1) The yeast AhR screen is an in-vitro test to detect transactivating potential of substances on the arylhydrocarbon receptor. The recombinant yeast strain YCM3 of Saccharomyces cerevisiae, which was a present of Charles Miller, was used. The assay procedure was essentially as described by Miller. The human AhR and ARNT genes are integrated into chromosome III of the yeast. The galactose-regulated GAL 1, 10 promotor is accountable for the expression of AhR and ARNT in equal shares by induction with galactose, the carbon source of the medium (GOLD medium-trp). If a ligand of the AhR is present, an AhR/ARNT heterodimer is built and can bind to the five xenobiotic response elements of the lacZ-reporter plasmid and induce the expression of the lacZ-gene. Therefore the transcriptional activation of a ligand is quantified via β-galactosidase activity. […] The yeast AhR assay was performed in 50 ml plastic tubes with conical bottom and in microtiterplates.
A colony of YCM3 was transferred in SCM-trp medium and grown to OD600 of about 2.0. For each experiment a new overnight culture was prepared in SCM-trp medium. For this purpose a 1:10 dilution of the YCM3 yeast stock in SCM-trp medium was prepared. After incubation overnight the culture was diluted to an OD600 of 0.4 and grown again to an OD600 of 1.0 to 1.5. For the assay the culture was 1:50 diluted in Gold galactose-trp media, which contains 1.2% galactose as the inductor. 50 μl of test substance (dissolved in DMSO) and 5 ml of this yeast culture were incubated for 17 h at 30° C. while shaking. The tubes have to be in an inclined position for optimal yeast growth. For the blank only 50 μl of DMSO were added to the yeast culture. A calibration curve with β-naphtoflavone was performed within each test run. After incubation cells were collected by centrifugation at 2500 rpm for 5 min. The supernatant was discarded, the pellets were resuspended in 1 ml lacZ-buffer, transferred into 1.5 ml test tubes and centrifuged at 10 000 rpm and 4° C. for 5 min. The supernatant was removed again and the pellets were resuspended in 100 μl lacZ buffer. Disintegration of the yeast cells was performed by vortexing with glass beads (3 times for 30 s with a rest on ice of 15 s between the vortexes). After centrifugation at 10 000 rpm and 4° C. for 10 min, the clear supernatant was used to perform the β-galactosidase and the protein-assay.
For the β-galactosidase-assay 5 μl from each test tube were transferred to a 96-well microtiterplate. 250 μl of a 1:6 diluted o-nitrophenyl-b-galactopyranoside (ONPG)-solution (dilution with lacZ-buffer) were added to each well. The microtiterplate was incubated at 37° C. until a yellow colour had developed. The reaction was stopped by adding 100 μl of 1 M Na2CO3 and the reaction time was noticed. […] Each determination was carried out in duplicates.
For the protein assay a modified method according to Bradford was performed. 5 μl of the supernatant of each test tube were transferred to the microtiterplate and 250 μl of Bio-Rad protein assay reagent (diluted with water 1:10) were added. […] As reference a standard curve with BSA was employed within each test. Each determination was carried out in duplicates.
The expression of β-galactosidase is equivalent to the quantity of the transactivating activity of substances and samples. The specific enzyme activity is expressed in AhR-units, which are the β-galactosidase-activity normalised to the total protein-level. The data were evaluated according Jungbauer et al..
(§2) For evaluation the AhR-units are plotted against the concentration (logarithmic scaling). The resulting curve is fitted using a logistic dose response function. The calculation and fitting was performed with Table Curve 2D software (Jandel Scientific).

human AhR [2] = target: T1, human AhR; experiment: Yeast AhR assay, format (tubes or microtiterplate) not stated
Text: as §1, §2
The equivalent concentrations of the extracts and samples were calculated from the logistic dose-response curve of β-naphtoflavone (FIG. 8) and expressed as nmol β-naphtoflavone per g sample or volume of sample.

human AhR [3] = target: T1, human AhR; experiment: Yeast AhR screen (strain YCM3), assay in microtiterplate
Text: as §1
A colony of YCM3 was transferred in SCM-trp medium and grown to OD600 of about 2.0. For each experiment a new overnight culture was prepared in SCM-trp. For this purpose a 1:10 dilution of the YCM3 yeast stock in SCM-trp medium was prepared. After incubation overnight the culture was diluted to an OD600 of 0.4 and grown again to an OD600 of 1.0 to 1.5. For the assay the culture was 1:50 diluted in Gold galactose-trp media, which contains 1.2% galactose as the inductor.
1 μl of test substance (dissolved in DMSO) and 100 μl of the yeast culture in galactose media were transferred in the wells (flat bottom) of a 96-well sterile microtiterplate. Each determination was carried out in duplicates. A calibration curve with β-naphtoflavone was performed within each test run. For better results only the inner part of the plate was used for the assay, because of a greater evaporation in the outer wells (row A and H, column 1 and 12). 150 μl of the diluted yeast culture were transferred into the outer wells. The microtiterplate was incubated for 17 h at 30° C. and while shaking.
The disintegration of the assay was performed with N-lauroylsarcosine, a strong detergent. A related method was described by Kippert, who used 1.5 ml centrifuge tubes and a disintegration with a 0.2% sarcosyl-solution. For the microtiterplate assay a modified version was used and the disintegration was performed via a 0.5% sarcosyl-solution. To circumvent a centrifugation of the plate and a transfer of the supernatant in another plate, what would complicate the assay unnecessarily, the calculation of the AhR-units was related to the optical density of 600 nm, instead of the protein level. A similar proceeding was applied by Adachi et al. and Miller.
After incubation 150 μl Z-Sarcosyl-buffer to each well were added. Then the OD was measured at 600 nm. For complete disintegration of the cells the plate was incubated for 20 min at 30° C. Afterwards 50 μl of ONPG-solution (a 1:6 diluted) were added to each well and incubated at 37° C. until a yellow colour had developed. The reaction was stopped by adding of 50 μl 1 M Na2CO3 and the reaction time was noticed. The absorption was measured at 405 nm (reference wavelength 620 nm).
The results of the β-galactosidase-assay of the AhR screen in microtiterplates were referenced to cell density (measured as the optical cell density at a wavelength of 600 nm). The calculation of the AhR-units is realised as follows:
OD405 and OD600 are the optical densities at a wavelength of 405 nm respectively 600 nm and Δt is the incubation time at 37° C. in minutes.
as §2

[4] = in plastic tubes, logistic dose response fit
[5] = in microtiterplate, logistic dose response fit
[6] = in microtiterplate, logistic dose response fit, read-out: Potency

T1 sequence (P35869 11-848): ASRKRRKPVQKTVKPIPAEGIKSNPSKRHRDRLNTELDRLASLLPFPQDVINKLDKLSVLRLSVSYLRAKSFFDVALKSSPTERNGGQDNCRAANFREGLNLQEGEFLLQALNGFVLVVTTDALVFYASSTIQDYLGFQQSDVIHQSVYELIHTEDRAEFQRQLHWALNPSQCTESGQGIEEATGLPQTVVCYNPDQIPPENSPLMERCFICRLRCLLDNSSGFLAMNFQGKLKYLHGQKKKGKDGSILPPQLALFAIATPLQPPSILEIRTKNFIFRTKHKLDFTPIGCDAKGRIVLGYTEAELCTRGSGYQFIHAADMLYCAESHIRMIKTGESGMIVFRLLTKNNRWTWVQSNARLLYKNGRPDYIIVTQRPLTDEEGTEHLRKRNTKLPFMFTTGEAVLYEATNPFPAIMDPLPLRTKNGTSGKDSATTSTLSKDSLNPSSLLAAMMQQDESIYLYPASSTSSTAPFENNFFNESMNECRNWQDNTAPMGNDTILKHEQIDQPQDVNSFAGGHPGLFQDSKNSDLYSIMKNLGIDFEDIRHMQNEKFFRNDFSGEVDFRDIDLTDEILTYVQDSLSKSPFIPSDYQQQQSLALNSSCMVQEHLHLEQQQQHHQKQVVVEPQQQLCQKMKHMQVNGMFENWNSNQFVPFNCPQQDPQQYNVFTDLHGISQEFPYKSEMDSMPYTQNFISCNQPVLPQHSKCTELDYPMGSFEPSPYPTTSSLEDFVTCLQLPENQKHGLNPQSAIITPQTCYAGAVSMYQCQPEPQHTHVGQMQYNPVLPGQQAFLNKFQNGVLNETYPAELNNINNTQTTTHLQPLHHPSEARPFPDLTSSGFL
T1 sequence (P27540 whole entry partner): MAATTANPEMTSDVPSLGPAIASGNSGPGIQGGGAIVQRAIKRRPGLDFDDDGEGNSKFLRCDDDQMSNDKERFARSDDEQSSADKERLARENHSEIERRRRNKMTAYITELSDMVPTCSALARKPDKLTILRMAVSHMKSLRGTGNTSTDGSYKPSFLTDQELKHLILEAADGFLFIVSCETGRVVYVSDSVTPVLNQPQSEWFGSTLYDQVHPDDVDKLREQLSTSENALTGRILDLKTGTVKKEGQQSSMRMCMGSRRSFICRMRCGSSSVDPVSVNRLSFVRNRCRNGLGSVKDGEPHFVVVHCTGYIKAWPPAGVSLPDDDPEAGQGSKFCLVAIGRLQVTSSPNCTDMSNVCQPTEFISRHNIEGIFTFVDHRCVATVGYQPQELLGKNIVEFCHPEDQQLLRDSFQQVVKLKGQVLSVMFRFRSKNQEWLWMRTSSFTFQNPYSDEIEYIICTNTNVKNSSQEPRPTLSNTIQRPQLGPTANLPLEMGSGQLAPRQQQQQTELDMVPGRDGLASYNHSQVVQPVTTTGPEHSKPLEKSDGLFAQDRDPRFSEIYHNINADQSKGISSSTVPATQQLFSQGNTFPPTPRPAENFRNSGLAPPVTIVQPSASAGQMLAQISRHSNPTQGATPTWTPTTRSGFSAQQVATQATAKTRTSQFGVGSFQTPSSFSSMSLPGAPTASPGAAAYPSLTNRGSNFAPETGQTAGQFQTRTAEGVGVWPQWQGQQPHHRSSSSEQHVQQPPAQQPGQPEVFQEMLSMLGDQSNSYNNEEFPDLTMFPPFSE

Molecule: O=c1c(-c2ccc(O)cc2)coc2cc(O)cc(O)c12 [Genistein]
- Potency (mol/l) (human AhR [1]; [4]): no activity
- transactivation of the AhR (in words) (human AhR [1]; pure compounds in DMSO): no transcriptional activity; also recorded: do not activate the AhR

Molecule: CC/C(=C(/CC)c1ccc(O)cc1)c1ccc(O)cc1 [diethylstilbestrol]
- transactivation of the AhR (in words) (human AhR [1]; pure compounds in DMSO): failed also in transactivating the AhR

Molecule: O=C(Cc1c[nH]c2ccccc12)c1ccco1 [compound “X”, 1-(2-furanyl)2-(3-indolyl)ethanone]
- equivalent concentration (human AhR [2]; preliminary isolate from preparative HPLC): 79 μmol β-naphtoflavone per gram sample

Molecule: C[C@]12CC[C@@H]3c4ccc(O)cc4CC[C@H]3[C@@H]1CC[C@@H]2O [17-β-Estradiol]
- Potency (mol/l) (human AhR [1]; [4]): no activity

Molecule: O=C(CCc1ccc(O)cc1)c1c(O)cc(O)cc1O [Phloretin]
- Potency (mol/l) (human AhR [1]; [4]): no activity

Molecule: O=C1C[C@@H](c2ccc(O)cc2)Oc2cc(O)cc(O)c21 [Naringenin]
- Potency (mol/l) (human AhR [1]; [4]): active ^c
- transactivation of the AhR (in words) (human AhR [1]; pure compounds in DMSO): a transactivation took place
- Potency (mol/l) (human AhR [3]; [5]): active ^c

Molecule: COc1cc(/C=C/C(=O)O)ccc1O [Ferulic acid]
- Potency (mol/l) (human AhR [1]; [4]): no activity
- transactivation of the AhR (in words) (human AhR [1]; pure compounds in DMSO): no activity

Molecule: O=c1cc(-c2ccc(O)cc2)oc2cc(O)cc(O)c12 [Apigenin]
- Potency (mol/l) (human AhR [1]): active^c
- transactivation of the AhR (in words) (human AhR [1]; pure compounds in DMSO): a transactivation took place
- Potency (mol/l) (human AhR [3]; [5]): active^c

Molecule: COc1ccc(-c2coc3cc(O)ccc3c2=O)cc1 [Formononetin]
- EC50 (human AhR [1]): 923 nM
- EC50 (human AhR [3]): 253 nM
- EC50 (human AhR [2]): 120 to 920 nM

Molecule: CC(=O)[C@H]1CC[C@H]2[C@@H]3CCC4=CC(=O)CC[C@]4(C)[C@H]3CC[C@]12C [Progesteron]
- Potency (mol/l) (human AhR [1]; [4]): no activity
- transactivation of the AhR (in words) (human AhR [1]; pure compounds in DMSO): failed also in transactivating the AhR

Molecule: CCCCOC(=O)c1ccccc1C(=O)OCCCC [Phtalic acid dibutyl ester]
- Potency (mol/l) (human AhR [1]): no activity

Molecule: Oc1cc(O)c2c(c1)O[C@H](c1ccc(O)c(O)c1)[C@H](O)C2 [Epicatechin]
- Potency (mol/l) (human AhR [1]; [4]): no activity

Molecule: O=c1oc2cc(O)ccc2c2oc3cc(O)ccc3c12 [Coumestrol]
- EC50 (human AhR [1]): 2090 nM
- EC50 (human AhR [3]): 1040 nM

Molecule: O=c1c(-c2ccc(O)cc2)coc2cc(O)ccc12 [Daidzein]
- Potency (mol/l) (human AhR [1]): no activity

Molecule: COc1ccc(-c2cc(=O)c3c(OC)c(OC)c(OC)c(OC)c3o2)cc1 [Tangeritin]
- Potency (mol/l) (human AhR [1]): no activity
- transactivation of the AhR (in words) (human AhR [1]): no activity

Molecule: O=c1c(O)c(-c2ccc(O)c(O)c2)oc2cc(O)cc(O)c12 [Quercetin]
- Potency (mol/l) (human AhR [1]; [4]): no activity
- transactivation of the AhR (in words) (human AhR [1]; pure compounds in DMSO): no activity; also recorded: do not activate the AhR

Molecule: COc1ccc(-c2coc3cc(O)cc(O)c3c2=O)cc1 [Biochanin A]
- EC50 (human AhR [1]): 599 nM
- EC50 (human AhR [3]; [6]): 125 nM

Molecule: O=C(O)/C=C/c1ccc(O)c(O)c1 [Caffeic acid]
- Potency (mol/l) (human AhR [1]; [4]): no activity
- transactivation of the AhR (in words) (human AhR [1]; pure compounds in DMSO): no activity

Molecule: Catechin
- Potency (mol/l) (human AhR [1]; [4]): no activity

Molecule: COc1cc(/C=C/C(=O)CC(=O)/C=C/c2ccc(O)c(OC)c2)ccc1O [Curcumin]
- Potency (mol/l) (human AhR [1]; [4]): no activity

Molecule: CC[C@H](CC[C@@H](C)[C@H]1CC[C@H]2[C@@H]3CC=C4C[C@@H](O)CC[C@]4(C)[C@H]3CC[C@]12C)C(C)C [β-Sitosterol]
- Potency (mol/l) (human AhR [1]; [4]): no activity
- transactivation of the AhR (in words) (human AhR [1]; pure compounds in DMSO): failed also in transactivating the AhR

Molecule: Oc1ccc([C@H]2COc3cc(O)ccc3C2)cc1 [Equol]
- Potency (mol/l) (human AhR [1]): active^c
- transactivation of the AhR (in words) (human AhR [1]; pure compounds in DMSO): a transactivation took place
- Potency (mol/l) (human AhR [3]): active^c

Molecule: O=c1cc(-c2ccccc2)oc2ccc3ccccc3c12 [β-Naphtoflavone]
- EC50 (human AhR [1]; in plastic tubes, logistic dose response fit, read-out: Potency): 10 nM
- EC50 (human AhR [3]; [6]): 280 nM
- EC50 (human AhR [2]; Example 10 text, read-out: EC50 value of the standard compound): ~10 nM
- EC50 (human AhR [2]; reference standard, read-out: EC50 value): 28 nM

Molecule: O=C(O)c1cc(O)c(O)c(O)c1 [Gallic acid]
- Potency (mol/l) (human AhR [1]): no activity
- transactivation of the AhR (in words) (human AhR [1]): no activity

Molecule: COc1ccc(-c2cc(=O)c3c(O)cc(O[C@@H]4O[C@H](CO[C@@H]5O[C@@H](C)[C@H](O)[C@@H](O)[C@H]5O)[C@@H](O)[C@H](O)[C@H]4O)cc3o2)cc1O [Diosmin]
- Potency (mol/l) (human AhR [1]; [4]): no activity

Molecule: OCc1c[nH]c2ccccc12 [Indole-3-carbinol]
- EC50 (human AhR [3]): 7000 nM
- EC50 (human AhR [2]): 7000 nM

Reference: patent US20090182028A1, “Plant Components and Extracts and Uses Thereof” (G.I.M. GESELLSCHAFT-FUR INNOVATIVE MEDIZIN G.M.B.H NFG OHG, priority 2006, published 2009)
